This passage reports AC50 and Ki results from patent US20230021562A1, “[…] D[…]-1 INHIBITORS” (priority 2019, published 2023).

For assay [1], the system named is MOLP8 cell line. The assay can be described thus: MOLP8 CellEvent Caspase-3/7 Green live-cell IncuCyte apoptosis assay. It is filed as cell-based, human. The conditions noted are these: averaged values. The procedure:
(§1) MCL-1 is a regulator of apoptosis and is highly over-expressed in tumor cells that escape cell death. The assay evaluates the cellular potency of small-molecule compounds targeting regulators of the apoptosis pathway, primarily MCL-1, Bfl-1, Bcl-2, and other proteins of the Bcl-2 family. Protein-protein inhibitors disrupting the interaction of anti-apoptotic regulators with BH3-domain proteins initiate apoptosis.
Activation of the apoptotic pathway was measured using the CellEvent™ Caspase-3/7 Green ReadyProbes™ Reagent (Thermo Fisher C10423, C10723). This assay produces a green fluorescent stain in cells that enter the apoptosis pathway. CellEvent® Caspase-3/7 Green reagent is a four amino acid peptide (DEVD) conjugated to a nucleic acid-binding dye that is non-fluorescent when not bound to DNA. The CellEvent® Caspase-3/7 Green reagent is intrinsically non-fluorescent, as the DEVD peptide inhibits binding of the dye to DNA. Upon activation of caspase-3/7 in apoptotic cells, the DEVD peptide is cleaved and the free dye can bind DNA, generating a bright green fluorescence. The activation of Caspase-3 and Caspase-7 is downstream of inhibition of MCL-1 or other apoptosis inhibiting proteins in cell lines that are dependent on them.
The live-cell readout on the IncuCyte permits tracking over time of the Caspase activation. […] The IncuCyte readout also allows one to normalize for cell number, as the suspension cells are hard to distribute evenly.
Signals were measured every 2 h for a duration of 22 h. The ratio of the Caspase mask to the Confluence mask, per image, as raw data, was calculated and the kinetic trace for every well was exported to Genedata Screener for analysis.
In Genedata Screener values for 6 h, 12 h, and 22 h from the kinetic traces were extracted. The values were normalized against negative controls (untreated cells). A standard dose-response analysis was performed on the normalized data.
The following data was reported at each of the following three aforementioned time points: (a) The dose-response curve, (b) The qAC50 and qAC50 Mode, and (c) Max Activity.
Cells were maintained in culture medium containing 10% Heat Inactivated (HI) FBS, 2 mM L-Glutamine and 50 μg/mL Gentamycin phenol red free RPMI-1640. Cells were split at 0.4 million/mL twice a week.
On Day 1, plates containing individual wells with test compounds at 10 mM concentration, 150 nL per well. The final concentrations range from […] compound (and no compound control) and compounds were thawed at room temperature for 1 hour. 25 μl of prewarmed medium was added into each well by multidrop (column 1, 3-22, 24), followed by addition of DMSO control (0.6% DMSO) in column 2. The plate was sealed using Breathe-Easy® sealing membrane and shaken for 30 min at room temperature to dissolve the test compound(s) in medium. The plate was then kept in the incubator for 1 hour at 37° C., 5% CO2.
MOLP8 cells in medium at […] (20000/50 μl final in assay) were prepared with CellEvent™ Caspase-3/7 Green Detection Reagent at 4 μM (2 μM final in assay). Once prepared, the cells were added to the test compound plate in an amount of 20000 and the plate was immediately placed in the IncuCyte and imaging started using following settings: 10× objective, 2 s exposure time in green channel, interval of 2 h, acquisition stopped after 22 h.
For analysis in IncuCyte, a Basic Analysis protocol was defined to calculate the “confluence” and “caspase” areas from the “Phase” and “green” images, respectively, as follows: (a) Confluence: Segmentation Adjustment 1, Hole Fill 0, Adjust Size −2, No filters (b) Caspase: Top-Hat segmentation, Radius 10, Threshold 0.3 GCU, Edge Split On with sensitivity 0, Hole Fill 0, Adjust Size 1, and filter on a minimum Area of 20 μm^2. The analyzer is trained on a sufficient number of positive and negative control wells, as well as compound treated wells, verifying that the “confluence” layer detects both live and dead (condensed) cells. […]

For assay [2], the system named is MOLP-8 human multiple myeloma cell line. The assay can be described thus: MOLP8 Caspase-Glo 3/7 luminescent assay. It is filed as cell-based.
Excerpt: as §1
The Caspase-Glo® 3/7 Assay is a luminescent assay that measures caspase-3 and -7 activities in purified enzyme preparations or cultures of adherent or suspension cells. The assay provides a proluminescent caspase-3/7 substrate, which contains the tetrapeptide sequence DEVD. This substrate is cleaved to release aminoluciferin, a substrate of luciferase used in the production of light. Addition of the single Caspase-Glo® 3/7 Reagent in an “add-mix-measure” format results in cell lysis, followed by caspase cleavage of the substrate and generation of a “glow-type” luminescent signal.
This assay uses the MOLP-8 human multiple myeloma cell line, which is sensitive to MCL-1 inhibition.
Cell cultures were maintained between 0.2 and 2.0×10^6 cells/mL. The cells were harvested by collection in 50 mL conical tubes. The cells were then pelleted at 500 g for 5 mins before removing supernatant and resuspension in fresh pre-warmed culture medium. The cells were counted and diluted as needed.
The assay reagent was prepared by transferring the buffer solution to the substrate vial and mixing. The solution may be stored for up to 1 week at 4° C. with negligible loss of signal.
Compounds were delivered in assay-ready plates (Proxiplate) and stored at −20° C.
Assays always include 1 reference compound plate containing reference compounds. The plates were spotted with 40 nL of compounds (0.5% DMSO final in cells; serial dilution; 30 μM highest conc. 1/3 dilution, 10 doses, duplicates). The compounds were used at room temperature and 4 μL of pre-warmed media was added to all wells except column 2 and 23. The negative control was prepared by adding 1% DMSO in media. The positive control was prepared by adding the appropriate positive control compound in final concentration of 60 μM in media. The plate was prepared by adding 4 μL negative control to column 23, 4 μL positive control to column 2 and 4 μL cell suspension to all wells in the plate. The plate with cells was then incubated at 37° C. for 2 hours. The assay signal reagent is the Caspase-Glo solution described above, and 8 μL was added to all wells. The plates were then sealed and measured after 30 minutes.
The activity of a test compound was calculated as percent change in apoptosis induction as follows: […]

The target of assay [3] is Myeloid Cell Leukemia 1 (Mcl-1) (Homo sapiens, UniProt Q07820). The assay can be described thus: biochemical. The assay is classed as binding. The following applies: HTRF Ki (nM). A general note: TR-FRET usually uses a lanthanide donor and a delayed reading to cut background.
Setting [4] is: read-out: MOLP8 Caspase 3/7 AC50 at 6 h, MOLP8 cells, 6 h.
The mark [5] stands for this setting: read-out: MOLP8 Caspase 3/7 AC50 at 12 h, MOLP8 cells, 12 h.
Setting [6] is: read-out: MOLP8 Caspase 3/7 AC50 at 22 h, MOLP8 cells, 22 h.
The mark [7] stands for this setting: MOLP8 cells, 2 hours incubation; averaged over all runs on all batches; read-out: MOLP8 Caspase-Glo AC50.
The mark [8] stands for this setting: read-out: MOLP8 Caspase-Glo AC50; MOLP8 cells, 2 hours incubation; averaged over all runs on all batches.
[9] abbreviates: Homo sapiens, MOLP-8, 6 h, read-out: MOLP8 Caspase 3/7 AC50 at 6 h (μM), MOLP8 cells, 6 h.
The mark [10] stands for this setting: Homo sapiens, MOLP-8, 12 h, read-out: MOLP8 Caspase 3/7 AC50 at 12 h (μM), MOLP8 cells, 12 h.
Where [11] appears, read: Homo sapiens, MOLP-8, 22 h, read-out: MOLP8 Caspase 3/7 AC50 at 22 h (μM), MOLP8 cells, 22 h.

Several values for one entry are separate records, joined by “and”; a condition that tells them apart may be missing. Equal entries are not always repeated. Where two headings read alike, the source gives them in different places.

Sequence of Myeloid Cell Leukemia 1 (Mcl-1) (Q07820 whole entry): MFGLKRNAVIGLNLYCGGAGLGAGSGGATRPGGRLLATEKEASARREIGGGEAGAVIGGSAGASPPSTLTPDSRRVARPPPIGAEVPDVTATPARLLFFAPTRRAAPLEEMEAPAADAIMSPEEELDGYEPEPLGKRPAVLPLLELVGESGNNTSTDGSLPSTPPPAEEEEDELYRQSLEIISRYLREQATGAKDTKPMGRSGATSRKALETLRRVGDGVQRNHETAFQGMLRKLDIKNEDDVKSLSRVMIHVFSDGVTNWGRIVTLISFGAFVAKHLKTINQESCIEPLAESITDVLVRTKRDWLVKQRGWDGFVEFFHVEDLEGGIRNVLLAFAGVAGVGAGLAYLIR

Take `Cc1c2c(nn1CCN1CCOCC1)CN(C)Cc1cc(n(C)n1)CSc1cc(c3ccccc3c1)OCCCc1c(C(=O)O)n(C)c3c-2c(Cl)ccc13` (single isomer, unassigned) [Compound 13]: the AC50 in assay [1] (setting [4]) stood at 0.15 µM; in assay [1] (setting [5]) it was 0.15 µM; in assay [1] (setting [6]), 0.17 µM; in assay [2] (setting [7]), 75 nM. In addition, the inhibitory constant (Ki) in assay [3] is 0.05 nM and 0.04 nM.
`Cc1c2c(nn1CCN1CCOCC1)CN(C)Cc1cc(n(C)n1)CSc1cc(c3ccccc3c1)OCCCc1c(C(=O)O)n(C)c3c-2c(Cl)ccc13` (single isomer, unassigned) [Compound 14]: the AC50 in assay [1] (setting [4]) is 7.67 µM; in assay [1] (setting [5]), 7.16 µM; in assay [1] (setting [6]), 7.33 µM; in assay [2] (setting [7]), 3680 nM. Moreover, the Ki in assay [3] was 2.85 nM and 2.53 nM.
Consider `Cc1nn(CC2CCOCC2)c2c1-c1c(Cl)ccc3c(c(C(=O)O)n(C)c13)CCCOc1cc(cc3ccccc13)SCc1cc(nn1C)CN(C)C2` (single isomer, unassigned) [Compound 15], for which the AC50 worked out at 0.23 µM in assay [1] (setting [4]), 0.23 µM in assay [1] (setting [5]), 0.19 µM in assay [1] (setting [6]) and 67 nM in assay [2] (setting [7]). In assay [3], the Ki is 0.09 nM and 0.03 nM.
For the compound `COCCn1nc(C)c2c1CN(C)Cc1cc(n(C)n1)CSc1cc(c3ccccc3c1)OCCCc1c(C(=O)O)n(C)c3c-2c(Cl)ccc13` (single isomer, unassigned) [Compound 25], the AC50 was found to be 0.09 µM in assay [1] (setting [4]), 0.1 µM in assay [1] (setting [5]) and 0.11 µM in assay [1] (setting [6]). In addition, the Ki in assay [3] was determined as 0.04 nM.
Taken in the same sequence, the figures for `Cc1c2c(nn1CCCN1CCOCC1)CN(C)Cc1cc(n(C)n1)CSc1cc(c3ccccc3c1)OCCCc1c(C(=O)O)n(C)c3c-2c(Cl)ccc13` (single isomer, unassigned) [Compound 35] were 0.15 µM, 0.15 µM, 0.15 µM and 0.04 nM.
For the compound `Cc1c2c(nn1CCO)CN(C)Cc1cc(n(C)n1)CSc1cc(c3ccccc3c1)OCCCc1c(C(=O)O)n(C)c3c-2c(Cl)ccc13` (single isomer, unassigned) [Compound 37], the figures for the AC50 in assay [1] (setting [4]), in assay [1] (setting [5]) and in assay [1] (setting [6]) were 0.71 µM, 0.62 µM and 0.56 µM, respectively. Moreover, the Ki in assay [3] is 0.06 nM and 0.04 nM.
Consider `Cc1nn(CCO)c2c1-c1c(Cl)ccc3c(c(C(=O)O)n(C)c13)CCCOc1cc(cc3ccccc13)SCc1cc(nn1C)CN(C)C2` (single isomer, unassigned) [Compound 39], for which the values for the AC50 in assay [1] (setting [4]), in assay [1] (setting [5]) and in assay [1] (setting [6]) were 0.65 µM, 0.85 µM and 0.65 µM, respectively. Also, the Ki in assay [3] was 0.06 nM and 0.05 nM.
Regarding `CCn1nc2cc1CSc1cc(c3ccccc3c1)OCCCc1c(C(=O)O)n(C)c3c(c(Cl)ccc13)-c1c(nn(C)c1C)CSC2` (single isomer, unassigned) [Compound 43], the AC50 in assay [2] (setting [8]) stood at 63 nM. Besides, affinity in assay [3] was put at a Ki of 0.04 nM.
Regarding `CCn1nc2cc1CSc1cc(c3ccccc3c1)OCCCc1c(C(=O)O)n(C)c3c(c(Cl)ccc13)-c1c(nn(C)c1C)CSC2` (single isomer, unassigned) [Compound 44], in assay [2] (setting [8]), the AC50 amounted to 3560 nM. For the same compound, the affinity in assay [3] corresponds to a Ki of 4.06 nM.
For the compound `CCn1nc2cc1CSCc1nn(C)c(C)c1-c1c(Cl)ccc3c(c(C(=O)O)n(C)c13)CCCOc1cc(cc3ccccc13)SC2` [Compound 1], the values for the AC50 in assay [1] (setting [9]), in assay [1] (setting [10]) and in assay [1] (setting [11]) were 0.13 µM, 0.13 µM and 0.11 µM, respectively. This compound also registered a Ki in assay [3] of 0.15 nM.
Consider `Cc1c2c(nn1C)CSCc1cc(nn1CCN(C)C)CSc1cc(c3ccccc3c1)OCCCc1c(C(=O)O)n(C)c3c-2c(Cl)ccc13` [Compound 4], for which the AC50 in assay [1] (setting [9]) was found to be 0.22 µM; in assay [1] (setting [10]), 0.25 µM; in assay [1] (setting [11]), 0.23 µM. Also, in assay [3], the inhibitory constant (Ki) was 0.09 nM and 0.1 nM.
Take `Cc1c2c(nn1C)CSCc1cc(n(CCN(C)C)n1)CSc1cc(c3ccccc3c1)OCCCc1c(C(=O)O)n(C)c3c-2c(Cl)ccc13` [Compound 5]: the AC50 in assay [1] (setting [9]) came out at 0.08 µM; in assay [1] (setting [10]) it was 0.08 µM; in assay [1] (setting [11]), 0.07 µM. The Ki in assay [3] was 0.06 nM and 0.08 nM.
In the case of `Cc1c2c(nn1C)CSCc1cc(n(CCO)n1)CSc1cc(c3ccccc3c1)OCCCc1c(C(=O)O)n(C)c3c-2c(Cl)ccc13` [Compound 7], the AC50 was 0.47 µM in assay [1] (setting [9]), 0.45 µM in assay [1] (setting [10]) and 0.46 µM in assay [1] (setting [11]). Further, the Ki in assay [3] was less than 0.094 nM.
Regarding `Cc1c2c(nn1C)CSCc1cc(nn1CCN1CCOCC1)CSc1cc(c3ccccc3c1)OCCCc1c(C(=O)O)n(C)c3c-2c(Cl)ccc13` [Compound 8], the AC50 in assay [1] (setting [9]) was found to be 0.24 µM; in assay [1] (setting [10]) it was 0.24 µM; in assay [1] (setting [11]), 0.25 µM. Moreover, in assay [3], the Ki is 0.13 nM and 0.08 nM.
Regarding `Cc1c2c(nn1C)CSCc1cc(n(CCN3CCOCC3)n1)CSc1cc(c3ccccc3c1)OCCCc1c(C(=O)O)n(C)c3c-2c(Cl)ccc13` [Compound 9], the figures for the AC50 in assay [1] (setting [9]), in assay [1] (setting [10]) and in assay [1] (setting [11]) were 0.1 µM, 0.097 µM and 0.1 µM, respectively. In assay [3], this compound gave an inhibition constant Ki of 0.05 nM.
Turning to `Cc1c2c(nn1C)CSCc1cc(n(CC3CCOCC3)n1)CSc1cc(c3ccccc3c1)OCCCc1c(C(=O)O)n(C)c3c-2c(Cl)ccc13` [Compound 12], the figures for the AC50 in assay [1] (setting [9]), in assay [1] (setting [10]) and in assay [1] (setting [11]) were 0.18 µM, 0.18 µM and 0.13 µM, respectively. Further, the Ki in assay [3] is 0.05 nM and 0.08 nM.

As usually defined, the Ki is the equilibrium dissociation constant of an inhibitor or competing ligand from its target. A higher Ki goes with weaker binding.
